Source: PMC12647218 (Scientific Reports, 2025)

What was measured:
[1] = target: Acetylcholinesterase from Electrophorus electricus (electric eel) (Electrophorus electricus, UniProt O42275); experiment: biochemical
[2] = target: Butyrylcholinesterase from equine serum (Equus caballus, UniProt P81908); experiment: BChE inhibition, modified colorimetric Ellman method; type: biochemical
[3] = target: T1, hMAO-A (Homo sapiens, UniProt P21397); experiment: hMAO-A inhibition, in vitro fluorometric technique; type: biochemical
T1 sequence (P21397 1-527): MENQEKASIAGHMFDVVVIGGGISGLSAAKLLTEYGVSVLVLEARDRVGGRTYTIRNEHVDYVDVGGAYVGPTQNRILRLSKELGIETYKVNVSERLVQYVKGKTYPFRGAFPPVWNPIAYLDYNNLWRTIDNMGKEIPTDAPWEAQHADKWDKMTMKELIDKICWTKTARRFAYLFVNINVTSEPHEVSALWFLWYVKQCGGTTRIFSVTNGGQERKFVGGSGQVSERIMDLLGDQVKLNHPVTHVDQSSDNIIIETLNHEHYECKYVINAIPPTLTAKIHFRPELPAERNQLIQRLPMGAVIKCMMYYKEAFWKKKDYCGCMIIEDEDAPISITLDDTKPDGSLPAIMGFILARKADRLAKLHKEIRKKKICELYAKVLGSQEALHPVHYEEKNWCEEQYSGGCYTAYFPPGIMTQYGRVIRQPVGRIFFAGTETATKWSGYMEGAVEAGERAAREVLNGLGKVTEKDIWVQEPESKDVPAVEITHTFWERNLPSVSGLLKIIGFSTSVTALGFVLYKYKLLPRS

Sequence of Acetylcholinesterase from Electrophorus electricus (electric eel) (O42275 24-633): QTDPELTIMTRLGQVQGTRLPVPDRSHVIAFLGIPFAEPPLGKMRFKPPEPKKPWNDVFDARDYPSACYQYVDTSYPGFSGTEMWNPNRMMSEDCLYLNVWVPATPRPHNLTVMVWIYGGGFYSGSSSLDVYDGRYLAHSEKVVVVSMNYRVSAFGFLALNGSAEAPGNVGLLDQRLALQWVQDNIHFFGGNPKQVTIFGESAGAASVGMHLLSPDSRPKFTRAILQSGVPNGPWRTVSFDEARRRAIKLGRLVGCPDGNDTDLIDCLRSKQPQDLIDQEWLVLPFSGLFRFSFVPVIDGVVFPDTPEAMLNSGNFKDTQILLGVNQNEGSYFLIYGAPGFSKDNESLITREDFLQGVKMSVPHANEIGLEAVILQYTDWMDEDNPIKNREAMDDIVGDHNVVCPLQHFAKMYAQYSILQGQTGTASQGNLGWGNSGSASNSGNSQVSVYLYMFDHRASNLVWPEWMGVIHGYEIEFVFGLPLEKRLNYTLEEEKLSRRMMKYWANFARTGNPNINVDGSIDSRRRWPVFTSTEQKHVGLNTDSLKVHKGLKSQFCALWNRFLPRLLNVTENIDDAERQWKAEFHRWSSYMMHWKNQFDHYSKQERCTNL
Sequence of Butyrylcholinesterase from equine serum (P81908 whole entry): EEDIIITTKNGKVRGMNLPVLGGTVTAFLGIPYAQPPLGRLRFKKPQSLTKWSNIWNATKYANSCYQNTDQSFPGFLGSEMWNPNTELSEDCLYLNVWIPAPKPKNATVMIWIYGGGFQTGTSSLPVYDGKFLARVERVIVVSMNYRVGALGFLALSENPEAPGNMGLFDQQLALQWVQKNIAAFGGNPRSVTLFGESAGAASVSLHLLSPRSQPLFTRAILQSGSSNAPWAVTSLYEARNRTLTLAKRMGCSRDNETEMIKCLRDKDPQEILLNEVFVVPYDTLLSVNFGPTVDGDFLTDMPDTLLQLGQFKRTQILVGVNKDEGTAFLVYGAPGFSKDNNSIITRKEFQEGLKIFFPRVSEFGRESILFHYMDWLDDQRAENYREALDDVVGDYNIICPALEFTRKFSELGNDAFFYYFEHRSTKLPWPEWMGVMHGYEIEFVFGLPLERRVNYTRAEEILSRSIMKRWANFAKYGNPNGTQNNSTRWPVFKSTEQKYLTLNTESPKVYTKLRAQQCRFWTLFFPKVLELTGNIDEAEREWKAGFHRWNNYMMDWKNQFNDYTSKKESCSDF

Structure (SMILES)	IC50 [1]	Ki [1]	IC50 [2]	Ki [2]	IC50 [3]
COc1cccc2cc(/C(C)=N/NC(=O)c3cc4ccccc4cc3O)c(=O)oc12 [Compound 3a, (E)-3-Hydroxy-N’-(1-(8-methoxy-2-oxo-2 H-chromen-3-yl)ethylidene)-2-naphthohydrazide]	7.4 ± 0.14 µM	6.03 ± 0.4 µM	74.4 ± 4.98 µM	63.3 ± 5.38 µM	1.44 ± 0.03 µM
COc1cccc2cc(/C(C)=N/NC(=O)Cn3ccc4cccnc43)c(=O)oc12 [Compound 3b, (E)-N’-(1-(8-methoxy-2-oxo-2 H-chromen-3-yl)ethylidene)-2-(1 H-pyrrolo[2,3-b]pyridin-1-yl)acetohydrazide]	26.5 ± 3.42 µM	15.7 ± 1.37 µM	> 100 µM	> 100 µM	1.97 ± 0.1 µM
COc1cccc2cc(/C(C)=N/NC(=O)c3ccccc3Br)c(=O)oc12 [Compound 3c, (E)-2-bromo-N’-(1-(8-methoxy-2-oxo-2 H-chromen-3-yl)ethylidene)benzohydrazide]	17 ± 1.9 µM	11.3 ± 0.93 µM	> 100 µM	> 100 µM	2.03 ± 0.08 µM
COc1cccc2cc(/C(C)=N/NC(=O)c3ccccc3C)c(=O)oc12 [Compound 3d, (E)-N’-(1-(8-methoxy-2-oxo-2 H-chromen-3-yl)ethylidene)-2-methylbenzohydrazide]	20.2 ± 2.67 µM	13.5 ± 1.24 µM	90.1 ± 3.78 µM	69.9 ± 5.75 µM	1.73 ± 0.05 µM
COc1cccc2cc(/C(C)=N/NC(=O)c3ccc(C(F)(F)F)cc3)c(=O)oc12 [Compound 3e, (E)-N’-(1-(8-methoxy-2-oxo-2 H-chromen-3-yl)ethylidene)-4-(trifluoromethyl) benzohydrazide]	8.01 ± 0.7 µM	7.38 ± 1.01 µM	65.4 ± 4.55 µM	57 ± 3.95 µM	1.51 ± 0.13 µM
COc1cccc2cc(/C(C)=N/NC(=O)c3ccco3)c(=O)oc12 [Compound 3f, (E)-N’-(1-(8-methoxy-2-oxo-2 H-chromen-3-yl)ethylidene)furan-2-carbohydrazide]	23.8 ± 2.44 µM	19.6 ± 2.44 µM	78.2 ± 5.8 µM	68.5 ± 5.07 µM	3.94 ± 0.43 µM
COc1cccc2cc(/C(C)=N/NC(=O)c3cccc4[nH]ccc34)c(=O)oc12 [Compound 3g, (E)-N’-(1-(8-methoxy-2-oxo-2 H-chromen-3-yl)ethylidene)-1 H-indole-4-carbohydrazide]	29 ± 4.3 µM	21 ± 3.48 µM	81.5 ± 6.02 µM	73.6 ± 4.66 µM	2.08 ± 0.15 µM
COc1cccc2cc(/C(C)=N/NC(=O)c3cccc(Cl)c3)c(=O)oc12 [Compound 3h, (E)-3-chloro-N’-(1-(8-methoxy-2-oxo-2 H-chromen-3-yl)ethylidene)benzohydrazide]	41.1 ± 3.28 µM	25.8 ± 1.97 µM	85 ± 3.48 µM	77 ± 6.92 µM	1.8 ± 0.26 µM
COc1cccc2cc(/C(C)=N/NC(=O)Cc3ccccc3)c(=O)oc12 [Compound 3i, (E)-N’-(1-(8-methoxy-2-oxo-2 H-chromen-3-yl)ethylidene)-2-phenylacetohydrazide]	18.4 ± 1.98 µM	15.4 ± 2.01 µM	79.3 ± 5.03 µM	70.3 ± 3.57 µM	1.87 ± 0.07 µM
COc1cccc2cc(/C(C)=N/NC(=O)c3cccs3)c(=O)oc12 [Compound 3j, (E)-N’-(1-(8-methoxy-2-oxo-2 H-chromen-3-yl)ethylidene)thiophene-2-carbohydrazide]	21.9 ± 3.24 µM	14.6 ± 1.05 µM	> 100 µM	> 100 µM	2.5 ± 0.31 µM
COc1cccc2cc(/C(C)=N/NC(=O)c3ccc(F)cc3)c(=O)oc12 [Compound 3k, (E)-4-fluoro-N’-(1-(8-methoxy-2-oxo-2 H-chromen-3-yl)ethylidene)benzohydrazide]	12.4 ± 0.98 µM	7.95 ± 0.57 µM	71.5 ± 3.68 µM	66.1 ± 4.62 µM	1.83 ± 0.17 µM
COc1cccc2cc(/C(C)=N/NC(=O)c3ccccn3)c(=O)oc12 [Compound 3l, (E)-N’-(1-(8-methoxy-2-oxo-2 H-chromen-3-yl)ethylidene)picolinohydrazide]	8.54 ± 1.01 µM	7.08 ± 0.64 µM	75 ± 5.3 µM	69 ± 5.3 µM	1.65 ± 0.34 µM
COc1cccc2cc(/C(C)=N/NC(=O)c3ccccc3Cl)c(=O)oc12 [Compound 3m, (E)-2-chloro-N’-(1-(8-methoxy-2-oxo-2 H-chromen-3-yl)ethylidene)benzohydrazide]	14.8 ± 1.4 µM	10.4 ± 0.59 µM	82.3 ± 6.9 µM	71.4 ± 7.01 µM	1.9 ± 0.3 µM
